Results as given in patent US11760733B2, “Small molecule regulators of mitochondrial fusion and methods of use thereof” (Washington University, priority 2017, dated 2023).
Entries after “also recorded” stand apart in the source; their conditions may differ. Values belong to the compound of their own block, whether it stands above or below them.

Columns and labels:
[1] = Liver microsome stability; assay type: in vitro ADME, human
Protocol: (§1) Plasma protein binding was measured using equilibrium dialysis; % bound=(1−[free compound in dialysate]/[total compound in retentate])×100. Plasma stability of […] compound in clarified freeze-thawed plasma was assessed by LC-MS/MS of supernatants after protein precipitation; 120 min data are reported for studies including 0, 10, 30, 60, and 120 min. Microsome stability of […] compound in liver microsomes (0.5 mg/ml) after 0, 5, 10, 20, 30, 60 min. incubation was assessed by LC/MS/MS of reaction extracts.

Mfn2 null MEFs = experiment: Mitochondrial elongation (aspect ratio) fusogenicity assay; assay type: cell-based, mouse
Description: A cultured murine embryonic fibroblast assay system was used in which mitochondrial elongation (an increase in aspect ratio) reflects enhanced mitochondrial fusion.
A pharmacophore model was generated based on the interactions of HR1 and HR2 domains in the calculated structural model of Mfn2 in the closed conformation. The key features included hydrophobic interactions involving Mfn2 HR1: Val372 and Met376, and aromatic interactions and hydrogen bonding involving Mfn2 HR1 His380. […] A library comprising ˜14 million commercially available compounds was prepared in silico and evaluated using PHASE to fit these criteria. Top ranked hits were clustered, and filtered based on pharmacological properties using Qikprop. The top 55 (see TABLE 4) commercially available small molecules conforming to the model were selected for functional screening and purchased in 1 mg aliquots. Each compound was dissolved to a stock concentration of 10 mM in DMSO and applied to Mfn2 null MEFs overnight at a final concentration of 1 mM. […] Images were acquired by confocal microscopy. Each compound was scored for fusogenicity (see e.g., FIG. 24A) and % cell death (see e.g., FIG. 24B).
Wild-type MEFs were prepared from E10.5 c57/bl6 mouse embryos. […] MEFs were subcultured in DMEM (4.5 g/L glucose) plus 10% fetal bovine serum, 1× nonessential amino acids, 2 mM L-glutamine, 100U/ml penicillin and 100 ug/ml streptomycin.
Cells were excited with 408 nm (Hoechst), […] (MitoTracker Green and Calcein AM, GFP), or 637 nm (TMRE, MitoTracker Orange, Ethidium homodimer-1, and AF594-Dextran) laser diodes. For mitochondrial elongation studies mitochondrial aspect ratio (long axis/short axis) was calculated using automated edge detection and Image J software. Mitochondrial depolarization was calculated as % of green mitochondria visualized on MitoTracker Green and TMRE merged images, expressed as green/(green+yellow mitochondria)×100.

[2] = Parallel artificial membrane permeability assay (PAMPA); assay type: in vitro ADME
P-gp/MDR1 = P-gp/MDR1 (Homo sapiens, UniProt P08183); experiment: P-gp/MDR1 transport; assay type: in vitro ADME
[3] = In vivo pharmacokinetics in mice; set-up: species or system mouse; details: 2 hours after IM administration, 1 mg/kg
Protocol: (A) Three mice each were administered 1 mg/kg agonist IV, IP, or IM. Graphs are mean plasma concentration for each administration route. (B) Results for individual mice were administered 1 mg/kg indicated agonist IM.

CMT2A MFN2 T105M mice = experiment: In vivo sciatic nerve mitochondrial motility in CMT2A mice; set-up: species or system mouse; details: IM 2 mg/kg twice, assessed 4 hours later
Protocol: Sciatic nerve mitochondrial motility was measured 4 hours later. Results described in FIG. 58 are for 2 CMT2A mice per group.

[4] = Solubility in 50 mM phosphate buffer pH 7.4; assay type: physicochemical
Plasma stability = assay type: in vitro ADME
Protocol: as §1

[5] = tested on: MFN2 T105M sciatic nerves; experiment: Sciatic nerve axonal mitochondrial motility, agonist applied to nerve; details: MFN2 T105M mouse sciatic nerve
Protocol: Sciatic nerves of 12-18 week old male or female MFN2 T105M mice were removed en bloc with the lumbar spine and axotomy at the tibial nerve, stained with TMEM ([…]) for 30 minutes in prewarmed Neurobasal Medium without phenol red (Thermo Fisher Scientific) at room temperature, washed, and maintained on the stage of a Nikon A1Rsi Confocal Microscope at 37 degrees C. for time-lapse confocal studies. Images were acquired with a 40× oil immersion objective at 1 frame every 5 or 10 seconds for sequential 10 minute periods. Mitofusin agonist chimera B-A/I was added after the first 10 minute imaging period (final concentrations of […]) and nerve axons imaged for another 40 minutes. Because there was no difference in mitochondrial trafficking or response to mitofusin agonist between male and female mice, the data were combined.

[6] = tested on: Mfn1/Mfn2 double null MEFs; experiment: Mitochondrial elongation in Mfn1/Mfn2 double null MEFs; assay type: cell-based, mouse
[7] = tested on: MFN2 Asp378 and Ala378 mutants; experiment: Mitochondrial fusion in cells expressing MFN2 Ser378 mutants; assay type: cell-based, human; details: phosphomimic Asp378 vs nonphosphorylatable Ala378
Description: On the basis of fluorescence resonance energy transfer (FRET) analysis of MFN2 labeled at the N and C termini, mitofusin agonists promoted an open MFN2 conformation favoring mitochondrial fusion, with a rank order paralleling that for HR2 binding and mitochondrial fusion (see e.g., FIG. 11G; compare to FIG. 11B and FIG. 11C), supporting allosteric activation.
Human Mfn2 Ser378 was mutated to Ala or Asp by site-directed mutagenesis using the QuikChange Lightning kit (Agilent Technologies Inc.) and primers: […]
Mfn2 and its mutants were sub-cloned into adenoviral vector Type 5 (dE1/E3) with RGD-fiber modification (Vector Biolabs) using BamHI/XhoI. All constructs were verified by Sanger DNA sequencing. Adeno-viral PINK1 was purchased from Vector Biolabs.

Mfn2 HR2 target peptide = molecular target: T1, Mfn2 HR2 target peptide (Homo sapiens, UniProt O95140); experiment: HR1 peptide-HR2 target binding assay; details: in vitro binding assay devoid of cellular kinases
T1 construct: Gly linker (GGGG after the His tag)
T1 sequence (O95140 with tags, fused parts or gaps limits assumed): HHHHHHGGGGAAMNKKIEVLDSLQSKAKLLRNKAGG
Description: The Mfn-derived fusion-promoting and -inhibiting mini-peptides (simulated to obtain the chemical Mfn agonists in TABLE 1 and TABLE 2) were modified from amino acid heptad repeats (HR) in the HR1 domain and predicted to interact with their counterparts in the carboxyl terminus HR2 domain within the Mfn stalk region (see e.g., FIG. 1, top panel). A high-throughput binding assay was designed whereby the target HR2 peptide sequences, modified to include amino terminal 6×His tags and Gly linkers, were bonded to Ni-chelate resin (20 μg/ml) and used as immobilized “receptor” for amino-FITC-tagged Mfn2 374-384 (agonist ligand) in which the Ser analogous to Ser378 was replaced with Asp to confer the negative charge essential for activity. For antagonist studies the ligand was amino-FITC-tagged Mfn2 406-418. The FITC peptide ligands are suspended at 1 mM in 30% DMSO, 70% water (to minimize spontaneous aggregation) and diluted into binding buffer (de-ionized water) to a final concentration of 25 μM in the presence or absence of competing compound. Dose-dependent loss of resin-bound FITC signal (485 nm excitation/538 nm emission) measured in a 96 well spectrofluorometer represents binding of compound to its HR2 target (see e.g., FIG. 10, FIG. 11). Either the ligand peptide or the receptor peptide can be modified to represent mutations, variations, or posttranslational modifications of Mfn2. […]
Target HR2 peptide sequence modified to include amino terminal 6×His tags and Gly linkers, were bonded to Ni-NTA resin (4.4 μg/ml) (Quiagen) and used as immobilized “receptor” for amino-FITC-tagged Mfn2 374-384 (ligand) in which the Ser analogous to Ser378 was replaced with Asp to confer the negative charge essential for activity. […] Resin-bound FITC signal (485 nm excitation/538 nm emission) measured in a 96 well spectrofluorometer (Spectramax M5e, Molecular Devices) represented binding to HR2 target. Competition binding isotherms were plotted and IC50 values calculated using Prism 7 (Graph Pad).

Sequence of P-gp/MDR1 (P08183 whole entry): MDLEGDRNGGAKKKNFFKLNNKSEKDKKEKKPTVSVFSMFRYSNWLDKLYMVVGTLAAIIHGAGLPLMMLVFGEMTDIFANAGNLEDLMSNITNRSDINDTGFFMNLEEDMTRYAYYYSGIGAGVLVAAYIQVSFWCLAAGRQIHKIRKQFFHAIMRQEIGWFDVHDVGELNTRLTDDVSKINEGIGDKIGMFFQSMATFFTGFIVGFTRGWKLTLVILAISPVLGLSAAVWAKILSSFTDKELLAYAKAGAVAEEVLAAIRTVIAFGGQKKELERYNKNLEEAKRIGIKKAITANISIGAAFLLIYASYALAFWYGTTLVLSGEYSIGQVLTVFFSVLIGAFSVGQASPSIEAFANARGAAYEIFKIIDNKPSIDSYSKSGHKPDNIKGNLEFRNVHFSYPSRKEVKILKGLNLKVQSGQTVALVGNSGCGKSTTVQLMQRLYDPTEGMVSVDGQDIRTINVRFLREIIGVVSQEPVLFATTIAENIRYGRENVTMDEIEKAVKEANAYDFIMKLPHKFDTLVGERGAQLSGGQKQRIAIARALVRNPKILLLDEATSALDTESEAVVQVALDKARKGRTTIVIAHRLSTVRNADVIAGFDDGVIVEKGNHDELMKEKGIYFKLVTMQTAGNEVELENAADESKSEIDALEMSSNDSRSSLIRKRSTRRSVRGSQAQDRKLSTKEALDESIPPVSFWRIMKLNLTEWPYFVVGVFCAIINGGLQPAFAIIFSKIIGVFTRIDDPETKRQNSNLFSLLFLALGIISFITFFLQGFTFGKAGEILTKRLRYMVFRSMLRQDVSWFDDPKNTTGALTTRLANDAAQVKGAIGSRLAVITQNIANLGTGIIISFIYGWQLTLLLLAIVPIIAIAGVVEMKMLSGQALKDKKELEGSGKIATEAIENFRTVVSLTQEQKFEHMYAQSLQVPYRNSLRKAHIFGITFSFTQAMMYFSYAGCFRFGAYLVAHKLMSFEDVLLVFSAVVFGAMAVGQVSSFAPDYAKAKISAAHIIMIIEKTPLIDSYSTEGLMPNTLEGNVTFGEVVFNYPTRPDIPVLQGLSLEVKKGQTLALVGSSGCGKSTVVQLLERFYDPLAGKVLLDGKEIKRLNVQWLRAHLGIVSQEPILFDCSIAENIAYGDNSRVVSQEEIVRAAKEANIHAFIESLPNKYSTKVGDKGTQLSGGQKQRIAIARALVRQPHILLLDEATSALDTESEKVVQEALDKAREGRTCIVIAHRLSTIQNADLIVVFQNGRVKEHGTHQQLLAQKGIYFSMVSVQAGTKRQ

passive diffusion across lipid-infused artificial membrane (PAMPA), in words [2]: excellent passive diffusion
total plasma drug concentration [3]: undetectable
P-gp/MDR1 transport, in words (P-gp/MDR1): actively transported by P-gp/MDR1
Compound: CC1CCCCC1NC(=O)NCCCc1nnc(C2CC2)n1-c1ccccc1 (centres unmarked) [Regeneurin-C, 1-(3-(5-cyclopropyl-4-phenyl-4H-1,2,4-triazol-3-yl)propyl)-3-(2-methylcyclohexyl)urea]

solubility, in words [4]: soluble
plasma stability, in words (Plasma stability): stable in plasma
Compound: CC1CCCCC1NC(=O)NCCSc1nnc(C2CC2)n1-c1ccccc1 (centres unmarked) [Regeneurin-S]
liver microsome stability, in words [1]: rapid degradation; also recorded: rapidly degraded by liver microsomes
sciatic nerve axonal mitochondrial motility [5]: rapidly correct mitochondrial dysmotility

binding of minipeptide to HR2 interacting domain (Mfn2 HR2 target peptide): did not
Compound: Ser^378 minipeptide: "smallest fusion promoting minipeptide (residues 374 to 384)" of MFN2 HR1, with unsubstituted Ser^378 (LIMDSLHMAAR; UniProt O95140 374-384, looked up, fragment)

Further lines, the compound ahead of its results:

Compound: Cn1c(SCC(=O)Nc2sc3c(c2C(N)=O)CCC3)nnc1-c1ccccc1 [1-61, 2-{2-[(4-methyl-5-phenyl-4H-1,2,4-triazol-3-yl)sulfanyl]acetamido}-4H,5H,6H-cyclopenta[b]thiophene-3-carboxamide]
liver microsome stability, in words [1]: greater resistance to liver microsomal degradation
potency relative to other compounds, in words (Mfn2 null MEFs): more potent

Compound: CCn1c(SCC(=O)Nc2sc3c(c2C(N)=O)CCC3)nnc1C1CC1 [1-G11, 2-{2-[(5-cyclopropyl-4-ethyl-4H-1,2,4-triazol-3-yl)sulfanyl]acetamido}-4H,5H,6H-cyclopenta[b]thiophene-3-carboxamide]
liver microsome stability, in words [1]: greater resistance to liver microsomal degradation
potency relative to other compounds, in words (Mfn2 null MEFs): more potent

Compound: CCn1c(CCCNC(=O)NC2CCOCC2)nnc1C1CC1 [Mitolityn-4, 1-(3-(5-cyclopropyl-4-ethyl-4H-1,2,4-triazol-3-yl)propyl)-3-(tetrahydro-2H-pyran-4-yl)urea]
passive diffusion across lipid-infused artificial membrane (PAMPA), in words [2]: no passive diffusion across lipid membrane
liver microsome stability, in words [1]: stability in the liver microsome assay
potency relative to other compounds, in words (Mfn2 null MEFs): highest potency
P-gp/MDR1 transport, in words (P-gp/MDR1): no reverse transport by P-gp

Compound: Cn1c(CCCNC(=O)NC2CCOCC2)nnc1C1CC1 [Mitolityn-6, 1-(3-(5-cyclopropyl-4-methyl-4H-1,2,4-triazol-3-yl)propyl)-3-(tetrahydro-2H-pyran-4-yl)urea]
liver microsome stability, in words [1]: stability in the liver microsome assay
potency relative to other compounds, in words (Mfn2 null MEFs): highest potency

Compound: O=C(NCCCc1nnc(C2CC2)n1-c1ccccc1)NC1CCOCC1 [Regeneurin-C/O, 1-(3-(5-cyclopropyl-4-phenyl-4H-1,2,4-triazol-3-yl)propyl)-3-(tetrahydro-2H-pyran-4-yl)urea]
sciatic nerve axon mitochondrial motility in vivo (CMT2A MFN2 T105M mice): corrects CMT2A neuronal mitochondrial dymotility in vivo; also recorded: reverses the characteristic mitochondrial immobility in sciatic nerve axons

Compound: CC1CCCCC1NC(=O)NCCSCc1ccccc1 (centres unmarked) [compound A, 1-[2-(benzylsulfanyl)ethyl]-3-(2-methylcyclohexyl)urea]
mitochondrial elongation in absence of both mitofusins [6]: did not occur
fusogenic activity (mitochondrial elongation), in words (Mfn2 null MEFs): induced mitochondrial elongation
selectivity of fusogenic effect for MFN2 Ser378 mutants [7]: specific for the Asp^378 mutant

Compound: Ala^378 minipeptide: MFN2 374-384 minipeptide in which "Ser^378 was substituted (with Ala, Cys, Asn or Gly)": the Ala variant (LIMDALHMAAR; UniProt O95140 374-384, looked up, variant S378A)
binding of minipeptide to HR2 interacting domain (Mfn2 HR2 target peptide): did not
